# In publication PMC10465243, “Identification of sucrose synthase from Micractinium conductrix to favor biocatalytic glycosylation” (Frontiers in Microbiology, 2023):
# Target: T1, UGT76G1 (Stevia rebaudiana, UniProt Q6VAB4, S195Q)
# T1 construct: codon-optimised gene in pRSFDuet-1 (NdeI/XhoI), co-expressed with a SuSy in E. coli BL21(DE3), crude extract
# Assay: HPLC of RebD and RebM, one-pot coupled with McSuSy S31D, E. coli crude extract
# Assay type: biochemical
# Conditions: sucrose, UDP recycling, potassium phosphate pH 7.2, 40°C; RebD formed in situ as intermediate
# T1 sequence (Q6VAB4 whole entry S195Q): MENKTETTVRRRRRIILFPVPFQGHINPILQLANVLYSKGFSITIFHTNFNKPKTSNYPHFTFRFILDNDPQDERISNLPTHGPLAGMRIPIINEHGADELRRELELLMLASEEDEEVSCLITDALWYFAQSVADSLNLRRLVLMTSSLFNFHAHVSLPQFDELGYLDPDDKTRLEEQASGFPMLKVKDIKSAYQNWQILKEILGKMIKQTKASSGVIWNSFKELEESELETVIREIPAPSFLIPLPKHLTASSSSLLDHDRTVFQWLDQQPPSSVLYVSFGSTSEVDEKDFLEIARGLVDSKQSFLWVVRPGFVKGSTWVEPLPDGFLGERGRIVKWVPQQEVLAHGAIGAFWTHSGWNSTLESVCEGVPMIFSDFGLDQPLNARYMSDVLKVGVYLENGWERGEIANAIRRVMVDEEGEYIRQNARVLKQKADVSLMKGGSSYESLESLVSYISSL
structure (smiles),measurement,value
C=C1C[C@@]23CC[C@H]4[C@@](C)(CCC[C@@]4(C)C(=O)O[C@@H]4O[C@H](CO)[C@@H](O)[C@H](O)[C@H]4O[C@@H]4O[C@H](CO)[C@@H](O)[C@H](O)[C@H]4O)[C@@H]2CC[C@]1(O[C@@H]1O[C@H](CO)[C@@H](O)[C@H](O[C@@H]2O[C@H](CO)[C@@H](O)[C@H](O)[C@H]2O)[C@H]1O[C@@H]1O[C@H](CO)[C@@H](O)[C@H](O)[C@H]1O)C3 [RebD],"HPLC of RebD and RebM, one-pot coupled with McSuSy S31D, E. coli crude extract",second glycosylation reaction that RebD was converted into RebM by UGT76G1_S195Q
